Among the data in patent US9409952B2, “Peptide-compound cyclization method” (Chugai Seiyaku Kabushiki Kaisha, priority 2011, dated 2016) are microsomal CLint values, retold here.

Starred links: 1 amine or outer side, 2 acyl side, 3 side chain; linkers in the order of their positions; H or OH if unused. Positions of bridges follow the written chain, without caps; N, C: chain ends. Non-standard residues stand in square brackets, D forms with d. Residues, ends and D or L forms follow the SMILES beside them. *: point of attachment. Phe(4-(CH2)5CO) = O=C([C@H](Cc1ccc(CCCCCC(=O)[*:3])cc1)N[*:1])[*:2]; NMeF = CN[C@@H](Cc1ccccc1)C(=O)O; NMeI = CC[C@H](C)[C@H](NC)C(=O)O; NMeβAla = CN(CCC(=O)[*:2])[*:1]; NMeL = CN[C@@H](CC(C)C)C(=O)O; NMeV = CN[C@H](C(=O)O)C(C)C; NMeA = CN[C@@H](C)C(=O)O; Piperidide = C1CCN(*)CC1; Sar = CNCC(=O)O

The first data set can be described thus: Metabolic stability in human hepatic microsome. In kind it is in vitro ADME. Conditions: human, microsomes, pH 7.4, CL NADPH(+).
The molecule `CC[C@H](C)[C@H](NC(=O)[C@H](Cc1ccccc1)N(C)C(=O)[C@@H]1CC(=O)N(C)[C@@H](C)C(=O)N[C@@H](Cc2ccccc2)C(=O)N(C)[C@@H](CC(C)C)C(=O)N(C)[C@@H](CC(C)C)C(=O)N[C@@H](Cc2ccccc2)C(=O)N(C)[C@@H](CC(C)C)C(=O)N[C@@H]([C@@H](C)CC)C(=O)N2CCC[C@H]2C(=O)N[C@@H]([C@@H](C)O)C(=O)N[C@@H](CC(C)C)C(=O)N1)C(=O)N1CCCCC1` [DP-962] ([NMeA]F[NMeL][NMeL]F[NMeL]IPTLD[NMeF]I-Piperidide; lactam N-11) showed a microsomal CLint at 1 uM of 22 µL/min/mg.

The same data set, now with this note: microsomes, pH 7.4; human hepatic microsome, NADPH(+); read-out: CL NADPH(+).
Consider `C=C1CCC(=O)N[C@@H](C(C)C)C(=O)N(C)[C@@H](C)C(=O)N(C)[C@@H](CC(C)C)C(=O)N[C@@H](CC(C)C)C(=O)N[C@@H](Cc2ccccc2)C(=O)N(C)[C@@H](Cc2ccccc2)C(=O)N[C@@H]([C@@H](C)CC)C(=O)N2CCC[C@H]2C(=O)N[C@@H]([C@@H](C)O)C(=O)N(C)[C@@H](CC(C)C)C(=O)N[C@H](C(=O)N2CCCCC2)Cc2cccc1c2` [DP-884], for which the microsomal CLint at 1 uM stood at 64 µL/min/mg.
On the same count and under the same terms, with `C=C1CCC(=O)N[C@@H](CC(C)C)C(=O)N[C@@H](C(C)C)C(=O)N(C)[C@@H](CC(C)C)C(=O)N[C@@H](Cc2ccccc2)C(=O)N(C)[C@@H](Cc2ccccc2)C(=O)N[C@@H]([C@@H](C)CC)C(=O)N(C)[C@@H](C)C(=O)N[C@@H](CC(C)C)C(=O)N[C@@H]([C@@H](C)O)C(=O)N[C@H](C(=O)N2CCCCC2)Cc2cccc1c2` [DP-890] the figure was 47 µL/min/mg; with `CC[C@H](C)[C@@H]1NC(=O)[C@H](Cc2ccccc2)N(C)C(=O)[C@H](Cc2ccccc2)NC(=O)[C@H](CC(C)C)N(C)C(=O)[C@H](C(C)C)NC(=O)[C@H](CC(C)C)NC(=O)[C@H](C)N(C)C(=O)CNC(=O)CCCCCc2ccc(cc2)C[C@@H](C(=O)N2CCCCC2)NC(=O)[C@H]([C@@H](C)O)NC(=O)[C@H](CC(C)C)NC(=O)[C@H](C)N(C)C1=O` [DP-891] (G[NMeA]LV[NMeL]F[NMeF]I[NMeA]LT[Phe(4-(CH2)5CO)]-Piperidide; lactam N-12), 100 µL/min/mg; with `CC[C@H](C)[C@@H]1NC(=O)[C@H](Cc2ccccc2)N(C)C(=O)[C@H](Cc2ccccc2)NC(=O)[C@H](CC(C)C)N(C)C(=O)[C@H](C(C)C)NC(=O)[C@H](CC(C)C)NC(=O)CCCCCc2ccc(cc2)C[C@@H](C(=O)N2CCCCC2)NC(=O)[C@H]([C@@H](C)O)NC(=O)[C@H](CC(C)C)NC(=O)[C@H](C)N(C)C1=O` [DP-892] (LV[NMeL]F[NMeF]I[NMeA]LT[Phe(4-(CH2)5CO)]-Piperidide; lactam N-10), 57 µL/min/mg.
On to `CC[C@H](C)[C@H]1C(=O)N[C@@H](Cc2ccccc2)C(=O)N(C)[C@@H](Cc2ccccc2)C(=O)N[C@@H]([C@@H](C)O)C(=O)N2CCC[C@H]2C(=O)N[C@@H](CC(C)C)C(=O)N[C@H](C(=O)N2CCCCC2)Cc2ccc(cc2)CCCCCC(=O)N[C@@H](C(C)C)C(=O)N(C)CC(=O)N[C@@H](CC(C)C)C(=O)N(C)[C@@H](CC(C)C)C(=O)N[C@@H](C)C(=O)N1C` [DP-895] (V[Sar]L[NMeL]A[NMeI]F[NMeF]TPL[Phe(4-(CH2)5CO)]-Piperidide; lactam N-12), for which the microsomal CLint at 1 uM was 54 µL/min/mg.
Still for that read-out and setting: to `C=C1CCC(=O)N[C@@H](CC(C)C)C(=O)N[C@@H](Cc2ccccc2)C(=O)N[C@@H]([C@@H](C)O)C(=O)N[C@@H](CC(C)C)C(=O)N(C)[C@@H](C)C(=O)N[C@@H](Cc2ccccc2)C(=O)NCC(=O)N[C@@H](C(C)C)C(=O)N[C@@H](CC(C)C)C(=O)N[C@@H](C)C(=O)N(C)[C@@H](CC(C)C)C(=O)N[C@H](C(=O)N2CCCCC2)Cc2ccc1cc2` [DP-898] belongs 21 µL/min/mg; to `C=C1CCC(=O)N[C@@H](C(C)C)C(=O)N(C)[C@@H](CC(C)C)C(=O)N(C)CC(=O)N(C)[C@@H](CC(C)C)C(=O)N(C)[C@@H]([C@@H](C)CC)C(=O)N[C@@H](C)C(=O)N(C)[C@@H](Cc2ccccc2)C(=O)N(C)[C@@H](Cc2ccccc2)C(=O)N[C@@H]([C@@H](C)O)C(=O)N(C)[C@@H](CC(C)C)C(=O)N2CCC[C@H]2C(=O)N[C@H](C(=O)N2CCCCC2)Cc2cccc1c2` [DP-899], 32 µL/min/mg.
The same measure, in the same setting: with `CC[C@H](C)[C@@H]1NC(=O)[C@H](Cc2ccccc2)N(C)C(=O)[C@H](CC(C)C)N(C)C(=O)[C@H](CC(C)C)NC(=O)[C@H](C)NC(=O)[C@H](C(C)C)N(C)C(=O)CNC(=O)CCCCCc2ccc(cc2)C[C@@H](C(=O)N2CCCCC2)NC(=O)[C@H](CC(C)C)N(C)C(=O)[C@H]([C@@H](C)O)NC(=O)[C@@H]2CCCN2C(=O)[C@H](Cc2ccccc2)NC1=O` [DP-902] (G[NMeV]AL[NMeL][NMeF]IFPT[NMeL][Phe(4-(CH2)5CO)]-Piperidide; lactam N-12) the figure was 121 µL/min/mg; with `CC[C@H](C)[C@H](NC(=O)[C@H](CC(C)C)N(C)C(=O)[C@H](Cc1ccccc1)N(C)C(=O)[C@@H]1CC(=O)N(C)[C@@H](C)C(=O)N[C@@H](C(C)C)C(=O)N[C@@H](C)C(=O)N[C@@H](CC(C)C)C(=O)N(C)[C@@H](Cc2ccccc2)C(=O)N[C@@H](CC(C)C)C(=O)N[C@@H]([C@@H](C)O)C(=O)N1)C(=O)N1CCCCC1` [DP-932] ([NMeA]VAL[NMeF]LTD[NMeF][NMeL]I-Piperidide; lactam N-8), 108 µL/min/mg; with `CC[C@H](C)[C@H](NC(=O)[C@H](CC(C)C)NC(=O)[C@H](CC(C)C)N(C)C(=O)[C@@H]1CC(=O)N[C@H](C(C)C)C(=O)N[C@@H](CC(C)C)C(=O)N(C)[C@@H](CC(C)C)C(=O)N[C@@H]([C@@H](C)O)C(=O)N[C@@H](C(C)C)C(=O)N(C)[C@@H](CC(C)C)C(=O)N(C)[C@@H](Cc2ccccc2)C(=O)N1)C(=O)N1CCCCC1` [DP-933] ([dV]L[NMeL]TV[NMeL][NMeF]D[NMeL]LI-Piperidide; lactam N-8), 43 µL/min/mg.
The same measure, in the same setting: to `CC[C@H](C)[C@H](NC(=O)[C@H](CC(C)C)N(C)C(=O)[C@H](CC(C)C)NC(=O)[C@@H]1CC(=O)N[C@@H](C)C(=O)N(C)[C@@H](Cc2ccccc2)C(=O)N(C)[C@@H](CC(C)C)C(=O)N(C)[C@@H](CC(C)C)C(=O)N[C@@H](Cc2ccccc2)C(=O)N[C@@H]([C@@H](C)O)C(=O)N[C@@H](C(C)C)C(=O)N1)C(=O)N1CCCCC1` [DP-934] (A[NMeF][NMeL][NMeL]FTVDL[NMeL]I-Piperidide; lactam N-8) belongs 143 µL/min/mg.
Regarding `CC[C@H](C)[C@H](NC(=O)[C@H](Cc1ccccc1)N(C)C(=O)[C@H](Cc1ccccc1)N(C)C(=O)[C@@H]1CC(=O)N(C)CCC(=O)N(C)[C@@H](CC(C)C)C(=O)N(C)[C@@H](Cc2ccccc2)C(=O)N[C@@H](CC(C)C)C(=O)N(C)[C@@H](CC(C)C)C(=O)N(C)[C@@H](CC(C)C)C(=O)N[C@@H]([C@@H](C)O)C(=O)N(C)[C@@H](C)C(=O)N1)C(=O)N1CCCCC1` [DP-960] ([NMeβAla][NMeL][NMeF]L[NMeL][NMeL]T[NMeA]D[NMeF][NMeF]I-Piperidide; lactam N-9), the microsomal CLint at 1 uM is 36 µL/min/mg.
